One molecule from patent publication US8609870B2, “Treating various disorders using TrkB agonists” (Emory University, priority 2008, dated 2013) can be followed below.

What all share (assay type): cell-based
Experiment [1] deals with T1, TrkB (Homo sapiens, UniProt Q16620).
T1 construct: expressed in transfected cells; host or cells: HEK293
The experiment in a line: TrkB dimerization assay (GST pull-down, transfected HEK293 cells). As to the method:
HEK293 cells transfected with GST-TrkB and HA-TrkA or TrkB were washed once in PBS, and lysed in 1 ml lysis buffer (50 mM Tris, pH 7.4, 150 mM NaCl, 1 mM EDTA, 0.5% Triton X-100, 1.5 mM Na3VO4, 50 mM NaF, 10 mM sodium pyrophosphate, 10 mM sodium β-glycerophosphate, 1 mM phenylmethylsulfonyl fluoride (PMSF), […], […] leupeptin, […] pepstatin A), and centrifuged for 10 minutes at 14,000×g at 4° C. The supernatant was then transferred to a fresh tube and transfected TrkB receptor was pulled down with glutathione beads. The coprecipitated proteins were resolved on SDS-PAGE. The samples were transferred to a nitrocellular membrane, and immunoblotting analysis was performed with a variety of antibodies.
BDNF is known to bind the TrkB receptor and provoke its dimerization (Barbacid, J. Neurobiol., 25:1386-1403, 1994; Klein et al, Cell, 66:395-403, 1991). To explore whether an identified active compound triggers TrkB receptor dimerization, HEK293 cells are cotransfected with GST-TrkB and HA-TrkB or HA-TrkA. The cells then are treated with BDNF or an identified active compound (0.5 μM) for 30 minutes. […]
Target sequence in this assay (Q16620 32-822, species assumed): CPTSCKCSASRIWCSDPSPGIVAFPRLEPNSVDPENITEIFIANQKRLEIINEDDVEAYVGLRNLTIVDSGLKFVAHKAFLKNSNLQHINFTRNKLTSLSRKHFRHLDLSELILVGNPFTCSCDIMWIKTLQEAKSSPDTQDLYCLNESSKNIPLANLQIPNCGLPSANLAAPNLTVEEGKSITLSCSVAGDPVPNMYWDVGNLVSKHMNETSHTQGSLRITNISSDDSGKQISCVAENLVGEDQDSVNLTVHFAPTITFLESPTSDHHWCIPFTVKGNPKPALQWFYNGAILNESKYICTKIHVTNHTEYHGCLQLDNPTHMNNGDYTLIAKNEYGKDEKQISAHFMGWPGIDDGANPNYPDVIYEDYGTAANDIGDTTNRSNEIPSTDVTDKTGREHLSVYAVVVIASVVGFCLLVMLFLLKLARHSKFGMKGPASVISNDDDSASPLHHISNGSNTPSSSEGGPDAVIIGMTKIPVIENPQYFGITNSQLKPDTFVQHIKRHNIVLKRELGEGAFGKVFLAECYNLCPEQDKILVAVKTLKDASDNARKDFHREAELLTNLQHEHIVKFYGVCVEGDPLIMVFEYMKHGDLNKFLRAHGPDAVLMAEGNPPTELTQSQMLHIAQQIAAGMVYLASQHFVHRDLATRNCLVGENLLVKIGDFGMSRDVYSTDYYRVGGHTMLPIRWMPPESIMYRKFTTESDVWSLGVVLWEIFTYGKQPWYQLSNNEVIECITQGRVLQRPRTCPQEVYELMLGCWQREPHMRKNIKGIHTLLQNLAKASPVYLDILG
Target sequence in this assay (Q16620 32-822, species assumed): as above

In another experiment the target is TrkA (Mus musculus, UniProt Q3UFB7). The experiment in a line: TrkA activation in cortical neurons from knockout mouse pups. More on the design: endogenous in cells; host or cells: primary cortical neurons from mouse pups.
Sequence of TrkA (Q3UFB7 34-799): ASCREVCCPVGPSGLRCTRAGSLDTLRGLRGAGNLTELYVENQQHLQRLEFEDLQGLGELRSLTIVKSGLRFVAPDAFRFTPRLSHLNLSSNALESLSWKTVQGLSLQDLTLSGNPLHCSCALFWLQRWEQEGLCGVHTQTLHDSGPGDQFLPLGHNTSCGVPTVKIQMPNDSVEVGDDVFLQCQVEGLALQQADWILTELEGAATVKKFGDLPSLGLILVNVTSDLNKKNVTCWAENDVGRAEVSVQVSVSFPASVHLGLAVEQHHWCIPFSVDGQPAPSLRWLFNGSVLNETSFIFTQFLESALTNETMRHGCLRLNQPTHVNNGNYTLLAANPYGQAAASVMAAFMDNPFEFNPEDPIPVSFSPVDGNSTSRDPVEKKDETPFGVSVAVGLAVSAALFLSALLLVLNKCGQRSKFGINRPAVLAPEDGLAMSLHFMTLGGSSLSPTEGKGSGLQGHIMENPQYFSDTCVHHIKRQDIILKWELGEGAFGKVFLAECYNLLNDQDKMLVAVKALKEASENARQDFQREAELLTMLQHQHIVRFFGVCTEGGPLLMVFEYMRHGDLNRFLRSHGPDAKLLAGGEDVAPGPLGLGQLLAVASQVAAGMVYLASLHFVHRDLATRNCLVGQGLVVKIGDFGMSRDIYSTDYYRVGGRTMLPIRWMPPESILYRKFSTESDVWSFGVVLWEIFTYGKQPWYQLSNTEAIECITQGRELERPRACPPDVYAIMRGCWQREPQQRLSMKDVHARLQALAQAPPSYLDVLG
For experiment [2], the target named is T1, TrkB. The experiment in a line: Tyrosine phosphorylation of TrkB in transfected HEK293 cells. An excerpt: To determine if an identified active compound promotes tyrosine phosphorylation of the other Trk receptors, HEK293 cells are transfected with various Trk receptors, which is followed by treatment with the identified active compound. Treatment with an identified active compound that elicits tyrosine phosphorylation in the TrkB receptor but not in the TrkA or TrkC receptor indicates an active compound.
To determine whether deoxygedunin binds the intra-cellular domain (ICD) or extra-cellular domain (ECD) of the TrkB receptor, ligand binding assays with [^3H]-deoxygedunin were performed. […] The coprecipitated HA-TrkB was also prominently tyrosine phosphorylated (see FIG. 14, 3rd panel).
Target sequence in this assay (Q16620 32-822, species assumed): as the sequence (Q16620 32-822, species assumed) above

For another experiment, the system named is hippocampal neurons. Description: Glutamate-triggered apoptosis in hippocampal neurons (MR(DEVD)2 / condensed nuclei). As to conditions: 0.5 μM preincubated 30 min, then 50 μM glutamate 16 h. As to the method:
To create and test reporter cell lines. In order to identify small molecules that mimic BDNF and activate TrkB, TrkB stably transfected murine cell lines are created. The T48 and T62 cell lines are created by transfecting basal forebrain SN56 cells, which express negligible TrkB, with a TrkB expression construct. To test expression of TrkB, the cells are treated with BDNF, which is predicted to result in strong phosphorylation of Trk-490 and Akt activation in comparison to the TrkA NTR stably expressing T17 cell line indicating expression of TrkB. To test resistance to apoptosis, the SN56 cells and the T48 cell line are either untreated or treated with BDNF, and then are subjected to an apoptotic assay. The apoptotic assay involves treating the cells with 0.75 μM Staurosporine for 9 hours, and 1 hour before completing the experiment, the cells are treated with 10 μM MR (DEVD)2. The cells then are fixed with 4% paraformaldehyde for 15 minutes, washed with phosphate buffered saline (PBS), and incubated with Hoechst 33342 for 10 minutes. Cover slides are washed with PBS, mounted, and then the cells are examined using a fluorescent microscope to see which cells turn red upon caspase cleavage.
To compare the apoptosis inhibitory activity of identified active compounds, the compounds are preincubated with SN56 and T48 cells, and subsequently are subjected to the fluorescent apoptotic assay as described above. To examine whether these identified active compounds promote neuronal survival, hippocampal neurons are prepared and the cultures are pretreated with the identified active compounds for 30 minutes, followed by treatment with 50 μM glutamate for 16 hours.
Using a cell-based screen as described above in Example 1 (based on the anti-apoptotic action of TrkB signaling) and the chemical library from the Spectrum Collection (described above), 66 positive hits were generated, four of which were gedunin derivatives. […] In this assay, neurons with both cleaved caspase (MR (DEVD)2 red cells) and condensed nuclei (DAPI staining) were counted as apoptotic cells. […]

The structures appear in SMILES notation.

As for `CC(=O)O[C@@H]1C[C@H]2C(C)(C)C(=O)C=C[C@]2(C)[C@H]2CC[C@]3(C)C(=CC(=O)O[C@H]3c3ccoc3)[C@@]21C` [deoxygedunin], the TrkB dimerization result on TrkB [1] is “robustly provoked TrkB dimerization with an effect even stronger than BDNF”. Besides, the TrkA activation entry at TrkA (both wild-type and TrkC knockout neurons) is “not TrkA activation”; on TrkA (cortical neurons (pups of TrkB +/− mice)) it was “not TrkA receptor”. Besides, on TrkB [2], the “tyrosine phosphorylation in TrkB” value is given as “elicited tyrosine phosphorylation in TrkB”. The “protective effect (apoptosis inhibitory activity)” value in the experiment on hippocampal neurons is “most robust protective effect”.
